Source: ChEMBL document CHEMBL1158904, “New metabolites from the sponge Spongia agaricina” (J Nat Prod, 1998)
Converted amounts (≈) assume the structure as drawn.

Tests used:
Format in all cases: functional, cell-based
[1] = system: A549; assay: Cytotoxicity against human A549 cells
[2] = system: P388; assay: Cytotoxicity against mouse P388 cells
[3] = system: SK-MEL-28; assay: Cytotoxicity against human SK-MEL-28 cells
[4] = system: HT-29; assay: Cytotoxicity against human HT-29 cells

SMILES	IC50 [1] [µg/mL]	IC50 [2] [µg/mL]	IC50 [3] [µg/mL]	IC50 [4] [µg/mL]
C=C(CC[C@@H](C)[C@H]1CC[C@@H](C2=C[C@@H]3O[C@@]34C[C@@H](O)CC[C@]4(C)C2=O)[C@]1(C)CC=O)C(C)C	1 (≈ 2.26 µM)	1 (≈ 2.26 µM)	1 (≈ 2.26 µM)	1 (≈ 2.26 µM)
CC(=O)O[C@H]1C[C@H]2[C@]3(C)CC[C@H]4C(C)(C)CCC[C@]4(C)[C@H]3C[C@@H](O)[C@]2(C)[C@H]2OC(=O)C=C12	5 (≈ 11.2 µM)	5 (≈ 11.2 µM)	5 (≈ 11.2 µM)	5 (≈ 11.2 µM)
CC(C)[C@@H](C)/C=C/[C@@H](C)[C@H]1CC[C@@H](C2=C[C@@H]3O[C@@]34C[C@@H](O)CC[C@]4(C)C2=O)[C@]1(C)CC=O [3-O-DEACETYLLUFFASTEROL B]	1 (≈ 2.26 µM)	1 (≈ 2.26 µM)	1 (≈ 2.26 µM)	1 (≈ 2.26 µM)
CC(=O)O[C@@H]1C[C@H]2[C@]3(C)CC[C@H]4C(C)(C)CCC[C@]4(C)[C@H]3C[C@@H](O)[C@]2(C)c2occc21	1 (≈ 2.33 µM)	1 (≈ 2.33 µM)	1 (≈ 2.33 µM)	1 (≈ 2.33 µM)
